In article PMC3405817 (Evidence-based Complementary and Alternative Medicine : eCAM, 2012):
In brackets after ≈: the same amount, converted by molar mass.

Key:
JEV [1] = experiment: Virus attachment assay (4°C, BHK-21 monolayer); type: cell-based; details: Japanese encephalitis virus; JEV 120 pfu, 4°C 1 h on BHK-21 monolayer, residual infectivity by plaque assay
Description: After 3-day incubation at 37°C in a 5% CO2 incubator, plaques were stained, as described in plaque assay.

JEV [2] = experiment: Virucidal activity assay; type: cell-based; details: Japanese encephalitis virus; JEV 10^5 pfu preincubated 60 min at 4°C, 1000-fold dilution, residual infectivity on BHK-21
Description: Virucidal assay was based on prior reports. […] A 1000-fold dilution of each extract/virus or compound/virus mixture was added onto BHK-21 cell monolayer in 6-well plates.

[3] = test system: virulent JEV strain Beijing-1; experiment: Mouse protection assay against lethal JEV challenge; type: in vivo; details: BALB/c mice, i.c. JEV 1 × 10^5 pfu, 1 mg/kg i.c. at 2, 24, 48 h after infection
Description: Groups (n = 10) of 2-week-old BALB/c mice were intracerebrally infected with 1 × 10^5 pfu of virulent JEV strain Beijing-1 then underwent three intracerebral treatments with 30 μg/100 μL of I. indigotica extract or marker compound (1 mg/kg of body weight) using 100 μL syringes at 2, 24, and 48 h after infection. Two additional groups were infected with JEV and received PBS or DMSO (0.05%) treatment as solvent controls. Survival rates were monitored every day for one week.

[4] = Cell viability assay (trypan blue), HL-CZ cells; details: human, CC50 HL-CZ, trypan blue staining
[5] = Cell viability assay (trypan blue), BHK-21 cells; details: hamster, CC50 BHK-21, BHK-21 cells, trypan blue staining
BHK-21 cells = experiment: Cell viability assay (trypan blue), BHK-21 cells; details: BHK-21 cells, 48 hours, trypan blue staining
JEV [6] = experiment: Virus yield in JEV-infected HL-CZ cells by plaque assay; details: 10 μg/mL, JEV MOI 0.5, after 24 h incubation
JEV [7] = experiment: Plaque reduction and time-of-addition assay in BHK-21 cells; details: Japanese encephalitis virus
[8] = test system: human promonocytic HL-CZ cells; experiment: Cell viability assay (trypan blue), HL-CZ cells; details: 48 hours, trypan blue staining
[9] = BHK-21, 1 h, read-out: IC50 of posttreatment
[10] = BHK-21, 1 h, read-out: IC50 of simultaneous treatment
[11] = BHK-21, read-out: IC50 of pretreatment

SMILES | IC50 (JEV [1]) [µg/mL] | IC50 (JEV [2]) [µg/mL] | Survival rate on Day 6 after infection [3] [%] | CC50 at 48 h [4] [µg/mL] | CC50 at 48 h [5] [µg/mL] | CC50 BHK-21 (BHK-21 cells) [µg/mL] | virus yield reduced (JEV [6]) | IC50 (JEV [7]; [9]) [µg/mL] | IC50 (JEV [7]; [10]) [µg/mL] | IC50 (JEV [7]; [11]) [µg/mL] | CC50 HL-CZ [8] [µg/mL] | CC50 BHK-21 (BHK-21 cells; listed as indigo) [µg/mL]
O=C1Nc2ccccc2/C1=C1/Nc2ccccc2C1=O [Indirubin, indirubin] | 5.1 ± 1.32 (≈ 19.4 µM) | 0.47 ± 2.83 (≈ 1.79 µM) | 70 | 64.9 ± 1.08 (≈ 247 µM) | 57.5 (≈ 219 µM) | >100 | approximately 40% | > 50 | 13.7 ± 2.83 (≈ 52.2 µM) | 23.5 ± 0.89 (≈ 89.6 µM) |  | 
C=C(C)[C@@H]1CC[C@]2(CO)CC[C@]3(C)[C@H](CC[C@@H]4[C@@]5(C)CC[C@H](O)C(C)(C)[C@@H]5CC[C@]43C)[C@@H]12 [Betulin, betulin] |  |  |  |  | < 25 | 13.30 ± 2.58 (≈ 30 µM) |  |  |  |  | 2.10 ± 0.78 (≈ 4.74 µM) | 
O=c1[nH]c2ccccc2o1 [2-Benzoxazolinone, 2-benzoxazolinone] |  |  |  |  | < 25 | 19.92 ± 1.57 (≈ 147 µM) |  |  |  |  | 67.33 ± 10.2 (≈ 498 µM) | 
C=C(C)[C@@H]1CC[C@]2(C)CC[C@]3(C)[C@H](CC[C@@H]4[C@@]5(C)CC[C@H](O)C(C)(C)[C@@H]5CC[C@]43C)[C@@H]12 [Lupeol, lupeol] |  |  |  |  |  | 9.53 ± 1.32 (≈ 22.3 µM) |  |  |  |  | 3.44 ± 1.17 (≈ 8.06 µM) | 
O=C1/C(=C2\Nc3ccccc3C2=O)Nc2ccccc21 [Indigo, indigo] | 5.15 ± 0.18 (≈ 19.6 µM) | 3.03 ± 3.18 (≈ 11.6 µM) | 50 | 99.41 ± 0.54 (≈ 379 µM) |  | 86.88 ± 3.72 (≈ 331 µM) | approximately 40% | > 50 | 37.5 ± 3.18 (≈ 143 µM) | 11.79 ± 0.1 (≈ 45 µM) |  | 26.88 (≈ 102 µM)
O=C1c2ccccc2-n2c1nc1ccccc1c2=O [Tryptathrin, tryptanthrin] |  |  |  |  |  | 4.57 ± 0.26 (≈ 18.4 µM) |  |  |  |  | 1.74 ± 0.34 (≈ 7.01 µM) | 
Nc1ncnc2c1ncn2[C@@H]1O[C@H](CO)[C@@H](O)[C@H]1O [Adenosine, adenosine] |  |  |  | < 25 | < 25 | 24.10 ± 2.57 (≈ 90.2 µM) |  |  |  |  | 15.38 ± 1.05 (≈ 57.6 µM) | 
